Source: the supplement of paper PMC10307832

Assays:
Experiment in all cases: relative viability (nuclei count vs DMSO), 5 days (fraction); higher = more cells survive
EHT 1864 + Foretinib = compound: C1COCCN1CC2=CC(=O)C(=CO2)OCCCCCSC3=C4C=CC(=CC4=NC=C3)C(F)(F)F [EHT 1864] + COc1cc2c(Oc3ccc(NC(=O)C4(C(=O)Nc5ccc(F)cc5)CC4)cc3F)ccnc2cc1OCCCN1CCOCC1 [Foretinib] (partner 0.25 µM)
Summary of the method: (§1)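 Lung cancer cell lines, seeded in 1536-well plates, were treated the following day by pin tool with a single drug or with five library-drug doses (not always all listed) in √10 steps on top of a fixed anchor-drug dose. Cells were fixed and nuclei stained in one step after 5 days, and nuclei were counted. Relative viability is the nuclei count for treated wells divided by that for vehicle wells, reported as medians of duplicate plates.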

EHT 1864 + OSI-027 = compound: C1COCCN1CC2=CC(=O)C(=CO2)OCCCCCSC3=C4C=CC(=CC4=NC=C3)C(F)(F)F [EHT 1864] + COc1cccc2cc(-c3nc([C@H]4CC[C@H](C(=O)O)CC4)n4ncnc(N)c34)[nH]c12 [OSI-027] (partner 0.5 µM)
Summary of the method: as §1

EHT 1864 + Palbociclib = compound: C1COCCN1CC2=CC(=O)C(=CO2)OCCCCCSC3=C4C=CC(=CC4=NC=C3)C(F)(F)F [EHT 1864] + CC(=O)c1c(C)c2cnc(Nc3ccc(N4CCNCC4)cn3)nc2n(C2CCCC2)c1=O [Palbociclib] (partner 0.5 µM)
Summary of the method: as §1

EHT 1864 = compound: C1COCCN1CC2=CC(=O)C(=CO2)OCCCCCSC3=C4C=CC(=CC4=NC=C3)C(F)(F)F [EHT 1864]
Summary of the method: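 Only plates meeting two conditions passed: control CV below 25% and at least one doubling. Lung cancer cell lines, kept overnight at 37 °C in 1536-well plates, were pinned with five library-drug doses (not always all listed) √10 apart on vehicle-anchored plates and grown 5 days without medium change. A one-step fix, permeabilisation and Hoechst stain preceded 4× imaging and MetaXpress nuclear counting. Viability equals treated-well nuclei divided by vehicle-well nuclei, as the median over plates.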

Cell Line	relative viability (EHT 1864 + Foretinib; first compound 0.04 µM)	relative viability (EHT 1864 + Foretinib; first compound 0.1265 µM)	relative viability (EHT 1864 + Foretinib; first compound 0.4 µM)	relative viability (EHT 1864 + Foretinib; first compound 1.265 µM)	relative viability (EHT 1864 + Foretinib; first compound 4 µM)	relative viability (EHT 1864 + OSI-027; first compound 0.04 µM)	relative viability (EHT 1864 + OSI-027; first compound 0.1265 µM)	relative viability (EHT 1864 + OSI-027; first compound 0.4 µM)	relative viability (EHT 1864 + OSI-027; first compound 1.265 µM)	relative viability (EHT 1864 + OSI-027; first compound 4 µM)	relative viability (EHT 1864 + Palbociclib; first compound 0.04 µM)	relative viability (EHT 1864 + Palbociclib; first compound 0.1265 µM)	relative viability (EHT 1864 + Palbociclib; first compound 0.4 µM)	relative viability (EHT 1864 + Palbociclib; first compound 1.265 µM)	relative viability (EHT 1864 + Palbociclib; first compound 4 µM)	relative viability (EHT 1864; 0.04 µM)	relative viability (EHT 1864; 0.1265 µM)	relative viability (EHT 1864; 0.4 µM)	relative viability (EHT 1864; 1.265 µM)	relative viability (EHT 1864; 4 µM)
NCI-H661	1.03	0.956	0.993	0.986	0.817	0.735	0.587	0.659	0.711	0.597	0.4	0.389	0.41	0.381	0.352	1.01	1.01	0.975	0.941	0.926
NCI-H727	0.905	0.875	0.724	0.95	0.928	0.525	0.532	0.592	0.576	0.61	0.663	0.642	0.626	0.595	0.653	0.924	0.909	0.936	0.979	0.946
NCI-H838	0.88	0.864	1.05	0.95	1.01	0.371	0.313	0.395	0.376	0.425	0.208	0.185	0.266	0.223	0.244	0.915	0.851	0.99	1.01	1
NCI-H1355	0.972	0.815	0.921	0.95	0.966	0.417	0.289	0.409	0.397	0.396	0.411	0.357	0.391	0.389	0.414	0.949	0.732	0.965	0.984	0.987
NCI-H1395	1.03	0.924	0.897	1.02	0.859	0.649	0.515	0.683	0.621	0.696	0.61	0.595	0.631	0.57	0.614	0.933	0.752	1.01	0.86	0.861
NCI-H1437	1.31	1.22	1.2	1.03	0.824	0.852	0.916	0.813	0.722	0.703	0.311	0.293	0.309	0.236	0.302	1.05	0.94	0.936	0.839	0.762
NCI-H1650			1.18	0.896	0.92			0.599	0.638	0.611	0.375	0.31	0.273	0.378	0.277	0.892	0.676	0.907	0.826	0.754
NCI-H1651	0.836	0.757	0.845	0.691	0.827	0.704	0.675	0.75	0.647	0.69	0.529	0.501	0.534	0.504	0.522	0.944	0.958	0.918	0.949	0.98
